In patent publication US20260184708A1, “PYRIDAZINONES AND METHODS OF USE THEREOF” (GFB (ABC), LLC, priority 2017, published 2026):

Target: T1, TRPC5 (Homo sapiens, UniProt Q9UL62)
T1 construct: expressed in transfected cells; host or cells: HEK 293
T1 sequence (Q9UL62 1-973): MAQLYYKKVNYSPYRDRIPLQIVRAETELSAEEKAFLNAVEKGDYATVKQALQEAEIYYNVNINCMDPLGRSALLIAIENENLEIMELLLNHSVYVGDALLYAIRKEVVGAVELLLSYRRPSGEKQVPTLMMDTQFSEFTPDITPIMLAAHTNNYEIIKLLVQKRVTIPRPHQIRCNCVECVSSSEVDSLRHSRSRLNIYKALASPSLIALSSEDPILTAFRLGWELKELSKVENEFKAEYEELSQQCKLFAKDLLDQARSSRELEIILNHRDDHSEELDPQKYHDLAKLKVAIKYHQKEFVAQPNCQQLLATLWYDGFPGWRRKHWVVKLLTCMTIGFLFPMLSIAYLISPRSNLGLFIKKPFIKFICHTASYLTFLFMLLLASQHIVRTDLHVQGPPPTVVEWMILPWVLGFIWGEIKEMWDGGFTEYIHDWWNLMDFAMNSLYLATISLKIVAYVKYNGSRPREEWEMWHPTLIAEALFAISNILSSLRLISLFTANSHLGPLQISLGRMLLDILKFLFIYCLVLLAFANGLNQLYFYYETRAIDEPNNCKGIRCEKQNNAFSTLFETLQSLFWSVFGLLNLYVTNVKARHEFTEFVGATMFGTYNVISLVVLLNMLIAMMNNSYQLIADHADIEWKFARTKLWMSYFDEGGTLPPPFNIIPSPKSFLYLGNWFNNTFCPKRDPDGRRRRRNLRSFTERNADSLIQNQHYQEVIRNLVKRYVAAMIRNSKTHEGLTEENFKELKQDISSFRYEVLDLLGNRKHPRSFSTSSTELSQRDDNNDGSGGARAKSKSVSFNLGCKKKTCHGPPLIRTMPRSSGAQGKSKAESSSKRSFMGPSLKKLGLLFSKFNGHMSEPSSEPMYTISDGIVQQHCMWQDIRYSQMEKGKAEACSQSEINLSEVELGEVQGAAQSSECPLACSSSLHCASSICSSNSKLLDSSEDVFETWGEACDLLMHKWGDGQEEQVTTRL
Test: TRPC5 automated patch clamp assay (Qpatch), current block after rosiglitazone stimulation
Assay type: cell-based
Conditions: HEK293 cells overexpressing TRPC5; rosiglitazone stimulation; 80 mV; read-out: TRPC5_QP XC50_80
Procedure, shortened: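 HEK 293 cells expressing human TRPC5, whole-cell QPatch recording; 1 μM buffered free internal Ca2+, external pH 7.4. Ramps −100 to +100 mV over 300 ms every 10 s from −60 mV holding; channel activated by Rosiglitazone (30 uM) after ≥60 s control. IC50 from Hill fit.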

Compound | IC50 [µM]
Cc1ccccc1CN1CCN(c2cn[nH]c(=O)c2Br)CC12CC2 | 10 to 500
NC(=O)CN1CCN(c2cn[nH]c(=O)c2Br)CC1 | 10 to 500
Cc1ccccc1CN1CCN(c2cn[nH]c(=O)c2Br)CC1 | 1 to 5
O=c1[nH]ncc(N2C3CCC2CN(Cc2ccccc2)C3)c1Br | 10 to 500
O=c1[nH]ncc(N2CCN(CC3CCCCC3)CC2)c1Br | 1 to 5

Same assay, conditions: HEK293 cells overexpressing TRPC5; rosiglitazone stimulation; 100 mV; read-out: TRPC5_QP XC50_100

Compound | IC50 [µM]
Cc1ccccc1CN1CCN(c2cn[nH]c(=O)c2Br)CC12CC2 | 10 to 500
NC(=O)CN1CCN(c2cn[nH]c(=O)c2Br)CC1 | 10 to 500
Cc1ccccc1CN1CCN(c2cn[nH]c(=O)c2Br)CC1 | 1 to 5
O=c1[nH]ncc(N2C3CCC2CN(Cc2ccccc2)C3)c1Br | 10 to 500
O=c1[nH]ncc(N2CCN(CC3CCCCC3)CC2)c1Br | 1 to 5

Same assay, conditions: Table 3; HEK293 cells overexpressing TRPC5; rosiglitazone stimulation; 80 mV; read-out: TRPC5_QP_ XC50_80

Compound | IC50 [µM]
Cc1ccccc1CN1CCN(c2cn[nH]c(=O)c2CCC(C)C)CC1=O [drawing 695] | 10 to 500
O=C1CN(c2cn[nH]c(=O)c2Cl)CCN1Cc1c(F)cccc1F | 1 to 5
Cc1ccccc1CN1CCN(c2cn[nH]c(=O)c2C2=CCOCC2)CC1=O | 10 to 500
Cc1ccccc1CN1CC2(C1)CN(c1cn[nH]c(=O)c1Br)C2 | 10 to 500
Cc1ccccc1CN1CCN(c2cn[nH]c(=O)c2C#CC(C)C)CC1=O | 10 to 500
O=c1[nH]ncc(N2CCN(Cc3ccc(C(F)(F)F)cc3)CC2)c1Cl | 10 to 500
COc1c(N2CCN(Cc3ccccc3C)C(=O)C2)cn[nH]c1=O | 10 to 500
Cc1ccccc1CN1CCN(c2cn[nH]c(=O)c2C)CC1=O | 5 to 10
Cc1cc(F)ccc1CN1CCN(c2cn[nH]c(=O)c2Br)CC1 | 1 to 5
CCS(=O)(=O)c1c(N2CCN(Cc3ccccc3C)C(=O)C2)cn[nH]c1=O | 10 to 500
O=c1[nH]ncc(N2CCN(Cc3c(F)cccc3F)CC2)c1Cl | 1 to 5

Same assay, conditions: Table 3; HEK293 cells overexpressing TRPC5; rosiglitazone stimulation; 100 mV; read-out: TRPC5_QP_ XC50_100

Compound | IC50 [µM]
Cc1ccccc1CN1CCN(c2cn[nH]c(=O)c2CCC(C)C)CC1=O [drawing 695] | 10 to 500
O=C1CN(c2cn[nH]c(=O)c2Cl)CCN1Cc1c(F)cccc1F | 1 to 5
Cc1ccccc1CN1CCN(c2cn[nH]c(=O)c2C2=CCOCC2)CC1=O | 10 to 500
Cc1ccccc1CN1CC2(C1)CN(c1cn[nH]c(=O)c1Br)C2 | 10 to 500
Cc1ccccc1CN1CCN(c2cn[nH]c(=O)c2C#CC(C)C)CC1=O | 10 to 500
O=c1[nH]ncc(N2CCN(Cc3ccc(C(F)(F)F)cc3)CC2)c1Cl | 10 to 500
COc1c(N2CCN(Cc3ccccc3C)C(=O)C2)cn[nH]c1=O | 10 to 500
Cc1ccccc1CN1CCN(c2cn[nH]c(=O)c2C)CC1=O | 5 to 10
Cc1cc(F)ccc1CN1CCN(c2cn[nH]c(=O)c2Br)CC1 | 1 to 5
CCS(=O)(=O)c1c(N2CCN(Cc3ccccc3C)C(=O)C2)cn[nH]c1=O | 10 to 500
O=c1[nH]ncc(N2CCN(Cc3c(F)cccc3F)CC2)c1Cl | 1 to 5

Same assay, conditions: Table 4; HEK293 cells overexpressing TRPC5; rosiglitazone stimulation; 80 mV; read-out: TRPC5_QP_ XC50_80

Compound | IC50 [µM]
Cc1ccccc1CN1CCN(c2c(Cl)cn[nH]c2=O)CC1 | 5 to 10
O=c1[nH]ncc(N2CCN(C3(c4ccccc4)CC3)CC2)c1Cl | 5 to 10
O=C1CN(c2cn[nH]c(=O)c2Cl)CCN1Cc1cccc(-c2ccccc2)c1 | 10 to 500
Cc1ccccc1CN1CCN(c2cn[nH]c(=O)c2CCC(C)C)CC1=O [drawing 700] | 10 to 500
O=c1[nH]ncc(Cl)c1N1CCN(Cc2ccccc2C(F)(F)F)CC1 | 5 to 10
O=C1CN(c2cn[nH]c(=O)c2Cl)CCN1Cc1ccccc1Oc1ccccc1 | 5 to 10
Cc1ccccc1CN1CCN(c2cn[nH]c(=O)c2Oc2ccccc2)CC1=O | 10 to 500
C[C@@H]1CN(Cc2ccccc2C(F)(F)F)CCN1c1cn[nH]c(=O)c1Cl [drawing 716] | 1 to 5
O=C1CN(c2cn[nH]c(=O)c2Cl)CCN1Cc1ccc(-c2ccccc2)cc1 | 10 to 500
Cc1ccccc1CN1CCN(c2cn[nH]c(=O)c2CC(C)C)CC1=O | 10 to 500
Cc1ccccc1C(C)N1CCN(c2cn[nH]c(=O)c2Cl)CC1=O (stereo not drawn) | 1e-05 to 1

Same assay, conditions: Table 4; HEK293 cells overexpressing TRPC5; rosiglitazone stimulation; 100 mV; read-out: TRPC5_QP_ XC50_100

Compound | IC50 [µM]
Cc1ccccc1CN1CCN(c2c(Cl)cn[nH]c2=O)CC1 | 5 to 10
O=c1[nH]ncc(N2CCN(C3(c4ccccc4)CC3)CC2)c1Cl | 5 to 10
O=C1CN(c2cn[nH]c(=O)c2Cl)CCN1Cc1cccc(-c2ccccc2)c1 | 10 to 500
Cc1ccccc1CN1CCN(c2cn[nH]c(=O)c2CCC(C)C)CC1=O [drawing 700] | 10 to 500
O=c1[nH]ncc(Cl)c1N1CCN(Cc2ccccc2C(F)(F)F)CC1 | 5 to 10
O=C1CN(c2cn[nH]c(=O)c2Cl)CCN1Cc1ccccc1Oc1ccccc1 | 5 to 10
Cc1ccccc1CN1CCN(c2cn[nH]c(=O)c2Oc2ccccc2)CC1=O | 10 to 500
C[C@@H]1CN(Cc2ccccc2C(F)(F)F)CCN1c1cn[nH]c(=O)c1Cl [drawing 716] | 1 to 5
O=C1CN(c2cn[nH]c(=O)c2Cl)CCN1Cc1ccc(-c2ccccc2)cc1 | 10 to 500
Cc1ccccc1CN1CCN(c2cn[nH]c(=O)c2CC(C)C)CC1=O | 10 to 500
Cc1ccccc1C(C)N1CCN(c2cn[nH]c(=O)c2Cl)CC1=O (stereo not drawn) | 1e-05 to 1

Same assay, conditions: Table 5; HEK293 cells overexpressing TRPC5; rosiglitazone stimulation; 80 mV; read-out: TRPC5_QP_ XC50_80

Compound | IC50 [µM]
O=C1CN(c2cn[nH]c(=O)c2Cl)CCN1C1(c2ccccc2)CC1 | 1 to 5
O=c1[nH]ncc(N2CCc3ncn(Cc4ccccc4)c3C2)c1Cl | 10 to 500
CCn1nc(CN2CCN(c3cn[nH]c(=O)c3Cl)CC2)c2ccccc21 | 10 to 500
CC(C)(C)c1ccc(CN2CCN(c3cn[nH]c(=O)c3Cl)CC2=O)cc1 | 10 to 500
Cc1cc(C(F)(F)F)ccc1CN1CCN(c2cn[nH]c(=O)c2Cl)CC1=O | 1 to 5
C=Cc1n[nH]c(=O)c(Cl)c1N1CCN(Cc2ccc(F)cc2C)CC1 | 10 to 500
O=C1CN(c2c(Cl)cn[nH]c2=O)CCN1Cc1cccc(C(F)(F)F)c1 | 10 to 500
O=C1CN(c2c(Cl)cn[nH]c2=O)CCN1Cc1ccc(F)cc1F | 10 to 500
COc1cc(C(F)(F)F)ccc1CN1CCN(c2cn[nH]c(=O)c2Cl)CC1=O | 1 to 5
Cc1ccccc1CN1CCN(c2ccn[nH]c2=O)CC1=O | 10 to 500
O=C1CN(c2cn[nH]c(=O)c2Cl)CCN1Cc1ccc(C2CC2)cc1 | 10 to 500
Cc1cc(F)ccc1CN1CCN(c2c(C)n[nH]c(=O)c2Cl)CC1=O | 10 to 500
Cc1cc(F)ccc1CN1CCN(c2c(Br)n[nH]c(=O)c2Cl)CC1=O | 10 to 500

Same assay, conditions: Table 5; HEK293 cells overexpressing TRPC5; rosiglitazone stimulation; 100 mV; read-out: TRPC5_QP_ XC50_100

Compound | IC50 [µM]
O=C1CN(c2cn[nH]c(=O)c2Cl)CCN1C1(c2ccccc2)CC1 | 1 to 5
O=c1[nH]ncc(N2CCc3ncn(Cc4ccccc4)c3C2)c1Cl | 10 to 500
CCn1nc(CN2CCN(c3cn[nH]c(=O)c3Cl)CC2)c2ccccc21 | 10 to 500
CC(C)(C)c1ccc(CN2CCN(c3cn[nH]c(=O)c3Cl)CC2=O)cc1 | 10 to 500
Cc1cc(C(F)(F)F)ccc1CN1CCN(c2cn[nH]c(=O)c2Cl)CC1=O | 10 to 500
C=Cc1n[nH]c(=O)c(Cl)c1N1CCN(Cc2ccc(F)cc2C)CC1 | 10 to 500
O=C1CN(c2c(Cl)cn[nH]c2=O)CCN1Cc1cccc(C(F)(F)F)c1 | 10 to 500
O=C1CN(c2c(Cl)cn[nH]c2=O)CCN1Cc1ccc(F)cc1F | 10 to 500
COc1cc(C(F)(F)F)ccc1CN1CCN(c2cn[nH]c(=O)c2Cl)CC1=O | 5 to 10
Cc1ccccc1CN1CCN(c2ccn[nH]c2=O)CC1=O | 10 to 500
O=C1CN(c2cn[nH]c(=O)c2Cl)CCN1Cc1ccc(C2CC2)cc1 | 10 to 500
Cc1cc(F)ccc1CN1CCN(c2c(C)n[nH]c(=O)c2Cl)CC1=O | 10 to 500
Cc1cc(F)ccc1CN1CCN(c2c(Br)n[nH]c(=O)c2Cl)CC1=O | 10 to 500

Same assay, conditions: Table 6; HEK293 cells overexpressing TRPC5; read-out: TRPC5-QPatch IC50

Compound | IC50 [µM]
CCc1cc(F)ccc1Cn1cnc2c1CCN(c1cn[nH]c(=O)c1Cl)C2 [drawing 889] | 1e-05 to 1
